Results on 25 molecules are retold here after PubChem BioAssay AID330 (DTP/NCI, 2004).

This assay concerns P388 leukemia ip, CD2F1 mice, survival T/C. The assay can be described thus: NCI In Vivo Anticancer Drug Screen. Data for tumor model P388 Leukemia (intraperitoneal) in CD2F1 (CDF1) mice. Conditions: endpoint: median survival time, higher = longer survival. In a few lines: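 Mice carrying the transplanted tumor received test compound or vehicle. Survival was recorded in each group, and the value is the treated-group measurement divided by that of the vehicle-treated control group.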

Where [1] appears, read: dose: 12.5 mg/kg/injection, schedule: Q01DX005 (ip), vehicle: saline with Tween-80.
The mark [2] stands for this setting: dose: 25.0 mg/kg/injection, schedule: Q01DX005 (ip), vehicle: saline with Tween-80.
The mark [3] stands for this setting: dose: 50.0 mg/kg/injection, schedule: Q01DX005 (ip), vehicle: saline with Tween-80.
The mark [4] stands for this setting: dose: 200.0 mg/kg/injection, schedule: Q01DX005 (ip), vehicle: saline with Tween-80.
Where [5] appears, read: dose: 200.0 mg/kg/injection, schedule: Q01DX009 (ip), vehicle: saline with Tween-80.
[6] abbreviates: dose: 50.0 mg/kg/injection, schedule: Q01DX005 (ip), vehicle: Klucel (hydroxypropylcellulose) (HPC).
[7] abbreviates: dose: 100.0 mg/kg/injection, schedule: Q01DX005 (ip), vehicle: Klucel (hydroxypropylcellulose) (HPC).
Setting [8] is: dose: 200.0 mg/kg/injection, schedule: Q01DX005 (ip), vehicle: Klucel (hydroxypropylcellulose) (HPC).
The mark [9] stands for this setting: dose: 60.0 mg/kg/injection, schedule: Q01DX005 (ip), vehicle: saline with Tween-80.
The mark [10] stands for this setting: dose: 120.0 mg/kg/injection, schedule: Q01DX005 (ip), vehicle: saline with Tween-80.
The mark [11] stands for this setting: dose: 25.0 mg/kg/injection, schedule: Q04DX002 (ip), vehicle: saline with Tween-80.
Setting [12] is: dose: 50.0 mg/kg/injection, schedule: Q04DX002 (ip), vehicle: saline with Tween-80.
Where [13] appears, read: dose: 240.0 mg/kg/injection, schedule: Q01DX005 (ip), vehicle: saline with Tween-80.
[14] abbreviates: dose: 50.0 mg/kg/injection, schedule: Q01DX009 (ip), vehicle: saline.
Where [15] appears, read: dose: 100.0 mg/kg/injection, schedule: Q01DX009 (ip), vehicle: saline.

Several values for one entry are separate records, joined by “and”; a condition that tells them apart may be missing. Identical values can stand only once. Toxic doses and inconclusive results are not listed.

As to `Cc1c(COC(=O)NC(C)C)c(COC(=O)NC(C)C)c2n1CS(=O)C2` (stereo not drawn), the T/C is, setting by setting: under setting [1], 104 % of control; under setting [2], 111 % of control; under setting [3], 118 % of control; under setting [4], 176 % of control.
`COc1ccc2sc3cccc(NCCN(C)C)c3c(=O)c2c1`: the T/C under setting [1] is 112 % of control; the T/C under setting [2] was 108 % of control; the T/C under setting [3] is 100 % of control and 95 % of control; the T/C (dose: 100.0 mg/kg/injection, schedule: Q01DX005 (ip), vehicle: saline with Tween-80) was 98 % of control and 99 % of control; the T/C under setting [4] is 106 % of control; the T/C (dose: 400.0 mg/kg/injection, schedule: Q01DX005 (ip), vehicle: saline with Tween-80) was 98 % of control.
As to `O=C(O)CC(=O)C(C(=O)O)C(CCc1ccccc1)C(C(=O)O)C(=O)CC(=O)O` (stereo not drawn), the T/C (dose: 3.12 mg/kg/injection, schedule: Q01DX009 (ip), vehicle: saline with Tween-80) is 92 % of control; the T/C (dose: 6.25 mg/kg/injection, schedule: Q01DX009 (ip), vehicle: saline with Tween-80) is 101 % of control; the T/C (dose: 12.5 mg/kg/injection, schedule: Q01DX009 (ip), vehicle: saline with Tween-80) was 100 % of control; the T/C (dose: 50.0 mg/kg/injection, schedule: Q01DX009 (ip), vehicle: saline with Tween-80) is 89 % of control and 92 % of control; the T/C under setting [5] was 90 % of control.
With `CC1(C)OC2(C)CCC1C1C2N1C(=O)c1ccccc1` (stereo not drawn), the T/C was 94 % of control under setting [6], 102 % of control under setting [7] and 102 % of control under setting [8].
Turning to `CCO/C=C1\SC(=S)N(c2ccc(O)cc2)C1=O`, the T/C was 113 % of control (dose: 100.0 mg/kg/injection, schedule: Q04DX003 (ip), vehicle: saline); 113 % of control (dose: 200.0 mg/kg/injection, schedule: Q04DX003 (ip), vehicle: saline); 109 % of control (dose: 400.0 mg/kg/injection, schedule: Q04DX003 (ip), vehicle: saline).
On to `O=C(O)CC(CC(=O)O)c1ccc2c(c1)OCO2`, for which the T/C is 99 % of control under setting [6], 109 % of control under setting [7] and 99 % of control under setting [8].
Take `CC(C)OC(=O)NP1(=O)NCc2ccccc2CN1`: the T/C is, setting by setting: under setting [6], 101 % of control; under setting [7], 103 % of control; under setting [8], 94 % of control.
As for `C[Si](C)(C)CNCCNC[Si](C)(C)C`, the T/C runs as follows: under setting [9], 105 % of control; under setting [10], 98 % of control.
As for `CN=C1N=C(c2ccc(C(C)(C)C)cc2)C(O)(c2ccc(C(C)(C)C)cc2)N1` (stereo not drawn), the T/C runs as follows: under setting [11], 104 % of control; under setting [12], 117 % of control.
Take `CN(C)c1ccc(C2Sc3ccccc3S2)cc1`: the T/C runs as follows: (dose: 100.0 mg/kg/injection, schedule: Q01DX001 (ip), vehicle: Klucel (hydroxypropylcellulose) (HPC)) 97 % of control; (dose: 200.0 mg/kg/injection, schedule: Q01DX001 (ip), vehicle: Klucel (hydroxypropylcellulose) (HPC)) 95 % of control; (dose: 400.0 mg/kg/injection, schedule: Q01DX001 (ip), vehicle: Klucel (hydroxypropylcellulose) (HPC)) 97 % of control.
Take `COC(=O)C(=O)C1(c2nc3n(c2O)/C(=N/C(=O)Nc2ccc(Cl)cc2)N=N3)CCCCCC1=O` (stereo not drawn): the T/C is, setting by setting: under setting [9], 100 % of control; under setting [10], 99 % of control; under setting [13], 94 % of control.
For `CCOC(=O)C(CC(=O)O)=C1c2ccccc2-c2ccccc21` the same measures were 104 % of control, 113 % of control and 107 % of control.
In the case of `CCSC(C)(C)C`, the T/C runs as follows: under setting [14], 102 % of control; under setting [15], 100 % of control; (dose: 200.0 mg/kg/injection, schedule: Q01DX009 (ip), vehicle: saline) 100 % of control.
In the case of `O=C(O)/C(Cl)=C(Cl)\C=N\Nc1ccccc1`, the T/C under setting [11] is 100 % of control; the T/C under setting [12] is 102 % of control; the T/C (dose: 100.0 mg/kg/injection, schedule: Q04DX002 (ip), vehicle: saline with Tween-80) is 100 % of control.
On to `O=C1C2C[C@@H]3c4ccccc4N[C@@H]3N2C(=O)C2CCCN12` (stereo partly drawn), for which the T/C reads like this: under setting [6], 97 % of control; under setting [7], 102 % of control; under setting [8], 94 % of control.
As to `C[CH2][Sn]([CH2]C)([O][P+](=O)C[Si](C)(C)c1ccccc1)[O][P+](=O)C[Si](C)(C)c1ccccc1` (stereo not drawn), the T/C by setting is: (dose: 30.0 mg/kg/injection, schedule: Q01DX005 (ip), vehicle: saline with Tween-80) 119 % of control; under setting [9], 153 % of control.
Take `O=C(O)c1ccc(CCCBr)cc1`: the T/C by setting is: (dose: 100.0 mg/kg/injection, schedule: Q01DX009 (ip), vehicle: saline with Tween-80) 105 % of control; under setting [5], 100 % of control; (dose: 400.0 mg/kg/injection, schedule: Q01DX009 (ip), vehicle: saline with Tween-80) 97 % of control.
Take `O=C1CCCCc2ccc(O)cc21`: the T/C was 104 % of control (dose: 100.0 mg/kg/injection, schedule: Q01DX009 (ip), vehicle: gum acacia); 102 % of control (dose: 200.0 mg/kg/injection, schedule: Q01DX009 (ip), vehicle: gum acacia); 110 % of control (dose: 400.0 mg/kg/injection, schedule: Q01DX009 (ip), vehicle: gum acacia).
On to `C/C1=C/C(O)C/C(C)=C\C(O)C(=O)/C=C/C2C(CC1)C2(C)C` (stereo not drawn), for which the T/C (dose: 2.5 mg/kg/injection, schedule: Q01DX005 (ip), vehicle: distilled water + Tween-80 + alcohol) is 104 % of control; the T/C (dose: 5.0 mg/kg/injection, schedule: Q01DX005 (ip), vehicle: distilled water + Tween-80 + alcohol) was 105 % of control; the T/C (dose: 10.0 mg/kg/injection, schedule: Q01DX005 (ip), vehicle: distilled water + Tween-80 + alcohol) was 100 % of control; the T/C (dose: 20.0 mg/kg/injection, schedule: Q01DX005 (ip), vehicle: distilled water + Tween-80 + alcohol) is 108 % of control.
Regarding `CCC[CH2][Sn]([CH2]CCC)([CH2]CCC)[CH2]CCCNCCCN(C)C`, the T/C is, setting by setting: under setting [14], 97 % of control; under setting [15], 100 % of control.
For the molecule `O=C(NC(Cc1ccc(Cl)cc1)C(=O)O)c1ccc(I)cc1` (stereo not drawn), the T/C by setting is: under setting [6], 101 % of control; under setting [7], 101 % of control; under setting [8], 94 % of control.
As for `O=C(Nc1ccccc1C1=NCCN1)Nc1ccccc1C1=NCCN1`, the T/C was 100 % of control (dose: 50.0 mg/kg/injection, schedule: Q01DX005 (ip), vehicle: saline) and 106 % of control (dose: 100.0 mg/kg/injection, schedule: Q01DX005 (ip), vehicle: saline).
Regarding `NC(=S)N/N=C\c1nccc2ccccc12`, the T/C runs as follows: (dose: 6.25 mg/kg/injection, schedule: Q01DX009 (ip), vehicle: saline) 90 % of control; (dose: 12.5 mg/kg/injection, schedule: Q01DX009 (ip), vehicle: saline) 99 % of control; (dose: 50.0 mg/kg/injection, schedule: Q01DX009 (ip), vehicle: suspension in saline) 94 % of control.
For the molecule `O=C1NC(=S)S/C1=C\c1ccncc1`, the T/C runs as follows: (dose: 50.0 mg/kg/injection, schedule: Q01DX009 (ip), vehicle: Klucel (hydroxypropylcellulose) (HPC)) 100 % of control and 110 % of control and 116 % of control; (dose: 100.0 mg/kg/injection, schedule: Q01DX009 (ip), vehicle: Klucel (hydroxypropylcellulose) (HPC)) 106 % of control (2×) and 114 % of control; (dose: 200.0 mg/kg/injection, schedule: Q01DX009 (ip), vehicle: Klucel (hydroxypropylcellulose) (HPC)) 98 % of control and 121 % of control and 91 % of control; (dose: 400.0 mg/kg/injection, schedule: Q01DX009 (ip), vehicle: Klucel (hydroxypropylcellulose) (HPC)) 106 % of control.
Take `CCCCP(=O)(CCCC)CCCC.CCCCP(=O)(CCCC)CCCC.CCCCP(=O)(CCCC)CCCC.CCCCP(=O)(CCCC)CCCC.[Fe+3].[O-][Cl+3]([O-])([O-])O`: the T/C reads like this: (dose: 50.0 mg/kg/injection, schedule: Q01DX009 (ip), vehicle: saline + Tween-80 + alcohol) 112 % of control; (dose: 100.0 mg/kg/injection, schedule: Q01DX009 (ip), vehicle: saline + Tween-80 + alcohol) 93 % of control; (dose: 200.0 mg/kg/injection, schedule: Q01DX009 (ip), vehicle: saline + Tween-80 + alcohol) 89 % of control.
